Laboratory results from article PMC9037349, “Elucidation of molecular interactions of theaflavin monogallate with camel milk lactoferrin: detailed spectroscopic and dynamic simulation studies” (RSC Advances, 2021).

Biological target: T1, camel milk lactoferrin (Camelus dromedarius, UniProt Q9TUM0)
T1 construct: gene LTF; lactoferrin isolated and purified from camel milk
T1 sequence (Q9TUM0 20-708): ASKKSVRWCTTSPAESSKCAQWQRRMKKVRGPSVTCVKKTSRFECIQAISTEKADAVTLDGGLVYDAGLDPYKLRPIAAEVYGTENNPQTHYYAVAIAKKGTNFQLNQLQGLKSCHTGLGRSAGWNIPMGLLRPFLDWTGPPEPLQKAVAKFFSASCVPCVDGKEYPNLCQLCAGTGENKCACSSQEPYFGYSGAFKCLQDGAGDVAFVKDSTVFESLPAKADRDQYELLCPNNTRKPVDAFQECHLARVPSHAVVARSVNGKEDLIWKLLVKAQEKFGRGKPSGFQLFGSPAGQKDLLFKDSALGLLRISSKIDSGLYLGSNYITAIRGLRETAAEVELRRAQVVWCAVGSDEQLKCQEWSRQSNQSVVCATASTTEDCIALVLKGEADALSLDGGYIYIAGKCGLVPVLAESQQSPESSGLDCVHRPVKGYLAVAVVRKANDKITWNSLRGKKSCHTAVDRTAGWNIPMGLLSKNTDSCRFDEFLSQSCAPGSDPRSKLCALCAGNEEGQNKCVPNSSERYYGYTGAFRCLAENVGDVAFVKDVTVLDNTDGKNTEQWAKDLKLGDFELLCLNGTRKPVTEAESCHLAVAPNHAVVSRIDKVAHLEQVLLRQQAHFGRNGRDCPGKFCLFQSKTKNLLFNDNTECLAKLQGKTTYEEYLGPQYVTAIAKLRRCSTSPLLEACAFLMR
Test: intrinsic fluorescence quenching titration (static; modified Stern-Volmer, […] K), supported by FRET, ANS fluorescence and CD
Assay type: binding
Details: read-out: K a × 10^4 (M^-1) (converted)

SMILES: O=C(O[C@@H]1Cc2c(O)cc(O)cc2O[C@@H]1c1cc(O)c(=O)c2c(O)c(O)cc([C@H]3Oc4cc(O)cc(O)c4C[C@H]3O)c2c1)c1cc(O)c(O)c(O)c1 [theaflavin monogallate]
- Kd: 23.4 µM
